# Source: publication PMC5218480 (PLoS ONE, 2017)
# Test system: MV-4-11 cells
# Test: Gene expression microarray analysis (Affymetrix PrimeView) and GSEA
# Type: cell-based, human
# Design: RFU PODN (11730768_x_at) / Fold change /veh PODN (11730768_x_at) / RFU LINC00158 (11744669_a_at) / Fold change /veh LINC00158 (11744669_a_at) / RFU DUSP10 (11751237_a_at) / Fold change /veh DUSP10 (11751237_a_at) / RFU ID3 (11757404_x_at) / Fold change /veh ID3 (11757404_x_at) / RFU PLEKHG5 (11737974_s_at) / Fold change /veh PLEKHG5 (11737974_s_at) / RFU LRRC4B (11730491_at) / Fold change /veh LRRC4B (11730491_at) / RFU GIMAP4 (11747438_a_at) / Fold change /veh GIMAP4 (11747438_a_at) / RFU KRT8 (11758183_x_at) / Fold change /veh KRT8 (11758183_x_at) / RFU CNN1 (11734310_a_at) / Fold change /veh CNN1 (11734310_a_at) / RFU VPS37D (11726825_at) / Fold change /veh VPS37D (11726825_at) / RFU C10orf10 (11716522_x_at) / Fold change /veh C10orf10 (11716522_x_at) / RFU KIR2DL2 /// KIR2DL4 /// KIR2DL5A /// KIR2DL5B /// KIR2DS1 /// KIR2DS2 /// KIR2DS3 /// KIR2DS4 /// KIR3DL3 /// KIR3DL3 /// KIR3DS1 (11738374_at) / Fold change /veh KIR2DL2 /// KIR2DL4 /// KIR2DL5A /// KIR2DL5B /// KIR2DS1 /// KIR2DS2 /// KIR2DS3 /// KIR2DS4 /// KIR3DL3 /// KIR3DL3 /// KIR3DS1 (11738374_at) / RFU C1QL1 (11718748_at) / Fold change /veh C1QL1 (11718748_at) / RFU TMPRSS4 (11747572_a_at) / Fold change /veh TMPRSS4 (11747572_a_at) / RFU HAMP (11756126_x_at) / Fold change /veh HAMP (11756126_x_at) / RFU RNFT2 (11725882_a_at) / Fold change /veh RNFT2 (11725882_a_at) / RFU NR4A2 (11747474_a_at) / Fold change /veh NR4A2 (11747474_a_at) / RFU ABCC12 (11746883_a_at) / Fold change /veh ABCC12 (11746883_a_at) / RFU TMEM136 (11760407_x_at) / Fold change /veh TMEM136 (11760407_x_at) / RFU CLDN22 /// WWC2 (11732394_at) / Fold change /veh CLDN22 /// WWC2 (11732394_at) / RFU HLA-DPB1 (11760878_x_at) / Fold change /veh HLA-DPB1 (11760878_x_at) / RFU SPINT1 (11716480_a_at) / Fold change /veh SPINT1 (11716480_a_at) / RFU GAP43 (11754022_s_at) / Fold change /veh GAP43 (11754022_s_at) / RFU A4GNT (11735810_at) / Fold change /veh A4GNT (11735810_at) / RFU PRB3 (11715151_x_at) / Fold change /veh PRB3 (11715151_x_at) / RFU TUBB4B (11761932_at) / Fold change /veh TUBB4B (11761932_at) / RFU CAPN14 (11732068_a_at) / Fold change /veh CAPN14 (11732068_a_at) / RFU TMCC2 (11721928_a_at) / Fold change /veh TMCC2 (11721928_a_at) / RFU IRGQ (11745062_a_at) / Fold change /veh IRGQ (11745062_a_at) / RFU FAM174B (11720279_a_at) / Fold change /veh FAM174B (11720279_a_at) / RFU TMPRSS4 (11748680_a_at) / Fold change /veh TMPRSS4 (11748680_a_at) / RFU FAM212B (11763350_a_at) / Fold change /veh FAM212B (11763350_a_at) / RFU PLEKHG5 (11743358_a_at) / Fold change /veh PLEKHG5 (11743358_a_at) / RFU ZSCAN30 (11745921_a_at) / Fold change /veh ZSCAN30 (11745921_a_at) / RFU CMKLR1 (11741424_a_at) / Fold change /veh CMKLR1 (11741424_a_at) / RFU LOC101060620 /// MAPK8IP1 (11723275_at) / Fold change /veh LOC101060620 /// MAPK8IP1 (11723275_at) / RFU SPTSSB (11747773_x_at) / Fold change /veh SPTSSB (11747773_x_at) / RFU PRSS12 (11739890_at) / Fold change /veh PRSS12 (11739890_at) / RFU BIN1 (11741810_x_at) / Fold change /veh BIN1 (11741810_x_at) / RFU WNT11 (11732464_a_at) / Fold change /veh WNT11 (11732464_a_at) / RFU C10orf10 (11716521_a_at) / Fold change /veh C10orf10 (11716521_a_at) / RFU C5orf56 (11738089_at) / Fold change /veh C5orf56 (11738089_at) / RFU CYB561 (11721691_x_at) / Fold change /veh CYB561 (11721691_x_at) / RFU ANKRD19P (11752326_a_at) / Fold change /veh ANKRD19P (11752326_a_at) / RFU OR2T12 /// OR2T33 /// OR2T8 (11738714_s_at) / Fold change /veh OR2T12 /// OR2T33 /// OR2T8 (11738714_s_at) / RFU VCAN (11748164_a_at) / Fold change /veh VCAN (11748164_a_at) / RFU JSRP1 (11732532_at) / Fold change /veh JSRP1 (11732532_at) / RFU KRTAP10-11 (11738290_x_at) / Fold change /veh KRTAP10-11 (11738290_x_at) / RFU MYO3A (11730013_a_at) / Fold change /veh MYO3A (11730013_a_at) / RFU EBF3 (11725865_a_at) / Fold change /veh EBF3 (11725865_a_at) / RFU CAMK2N1 (11719241_x_at) / Fold change /veh CAMK2N1 (11719241_x_at) / RFU C5orf56 (11738088_a_at) / Fold change /veh C5orf56 (11738088_a_at) / RFU OLFML3 (11715873_a_at) / Fold change /veh OLFML3 (11715873_a_at) / RFU LOC100653217 /// NTM (11731650_a_at) / Fold change /veh LOC100653217 /// NTM (11731650_a_at) / RFU MAPK11 (11762145_a_at) / Fold change /veh MAPK11 (11762145_a_at) / RFU FIZ1 (11724087_x_at) / Fold change /veh FIZ1 (11724087_x_at) / RFU OASL (11726364_x_at) / Fold change /veh OASL (11726364_x_at) / RFU SOX15 (11748057_x_at) / Fold change /veh SOX15 (11748057_x_at) / RFU CD79A (11719716_a_at) / Fold change /veh CD79A (11719716_a_at) / RFU HIST1H1D (11736915_at) / Fold change /veh HIST1H1D (11736915_at) / RFU CASKIN2 (11723855_a_at) / Fold change /veh CASKIN2 (11723855_a_at) / RFU LOC730098 (11760151_x_at) / Fold change /veh LOC730098 (11760151_x_at) / RFU OR4N2 (11742367_at) / Fold change /veh OR4N2 (11742367_at) / RFU PRRT2 (11749266_a_at) / Fold change /veh PRRT2 (11749266_a_at) / RFU SNX32 (11753110_a_at) / Fold change /veh SNX32 (11753110_a_at) / RFU CDHR5 (11726645_a_at) / Fold change /veh CDHR5 (11726645_a_at) / RFU RCAN1 (11760418_a_at) / Fold change /veh RCAN1 (11760418_a_at) / RFU FAM167A (11723789_a_at) / Fold change /veh FAM167A (11723789_a_at) / RFU FAM26E (11764081_at) / Fold change /veh FAM26E (11764081_at) / RFU ISYNA1 (11749810_s_at) / Fold change /veh ISYNA1 (11749810_s_at) / RFU ACY1 (11761880_at) / Fold change /veh ACY1 (11761880_at) / RFU 11764098_at / Fold change /veh 11764098_at / RFU SAMD14 (11745864_x_at) / Fold change /veh SAMD14 (11745864_x_at) / RFU NPB (11741838_a_at) / Fold change /veh NPB (11741838_a_at) / RFU TMPRSS6 (11731388_a_at) / Fold change /veh TMPRSS6 (11731388_a_at) / RFU KRTAP10-2 (11738614_at) / Fold change /veh KRTAP10-2 (11738614_at) / RFU ARHGAP8 /// PRR5-ARHGAP8 (11727945_x_at) / Fold change /veh ARHGAP8 /// PRR5-ARHGAP8 (11727945_x_at) / RFU KRTAP5-7 /// NADSYN1 (11734609_at) / Fold change /veh KRTAP5-7 /// NADSYN1 (11734609_at) / RFU RASL12 (11751679_a_at) / Fold change /veh RASL12 (11751679_a_at) / RFU CDKN2B (11736163_a_at) / Fold change /veh CDKN2B (11736163_a_at) / RFU PRF1 (11729649_at) / Fold change /veh PRF1 (11729649_at) / RFU, ZNF638 /// ZNF638-IT1 / Fold change vs veh, ZNF638 /// ZNF638-IT1 / RFU, PANK3 / Fold change vs veh, PANK3 / RFU, SH3YL1 / Fold change vs veh, SH3YL1 / RFU, ZEB2 / Fold change vs veh, ZEB2 / RFU, NRIP1 / Fold change vs veh, NRIP1 / RFU, PTTG1IP / Fold change vs veh, PTTG1IP / RFU, CAPN2 / Fold change vs veh, CAPN2 / RFU, MED14 / Fold change vs veh, MED14 / RFU, SNORA58 / Fold change vs veh, SNORA58 / RFU, C1orf63 / Fold change vs veh, C1orf63 / RFU, LRRFIP1 / Fold change vs veh, LRRFIP1 / RFU, NDUFAF7 / Fold change vs veh, NDUFAF7 / RFU, SLC12A2 / Fold change vs veh, SLC12A2 / RFU, IBTK / Fold change vs veh, IBTK / RFU, ESF1 / Fold change vs veh, ESF1 / Fold change vs veh, TMEM50B / RFU, TAOK1 / Fold change vs veh, TAOK1 / RFU, ACBD3 / Fold change vs veh, ACBD3 / RFU, TMA16 / Fold change vs veh, TMA16 / RFU, RWDD3 / Fold change vs veh, RWDD3 / RFU, BCAT1 / Fold change vs veh, BCAT1 / RFU, EDEM3 / Fold change vs veh, EDEM3 / RFU, TMEM33 / Fold change vs veh, TMEM33 / RFU, WDR75 / Fold change vs veh, WDR75 / RFU, AHCTF1 / Fold change vs veh, AHCTF1 / RFU, TFRC / Fold change vs veh, TFRC / RFU, ZDHHC17 / Fold change vs veh, ZDHHC17 / RFU, NOM1 / Fold change vs veh, NOM1 / RFU, ARL8B / Fold change vs veh, ARL8B / RFU, ZBTB11 / Fold change vs veh, ZBTB11 / RFU, TAMM41 / Fold change vs veh, TAMM41 / RFU, KIAA1704 /// LOC100996395 / Fold change vs veh, KIAA1704 /// LOC100996395 / RFU, ING1 / Fold change vs veh, ING1 / RFU, TRMT61B / Fold change vs veh, TRMT61B / RFU, FUBP3 / Fold change vs veh, FUBP3 / RFU, TP53 / Fold change vs veh, TP53 / RFU, TNKS2 / Fold change vs veh, TNKS2 / RFU, ZFP14 / Fold change vs veh, ZFP14 / RFU, ACTR2 / Fold change vs veh, ACTR2 / RFU, PPP3R1 / Fold change vs veh, PPP3R1 / RFU, PIK3R1 / Fold change vs veh, PIK3R1 / RFU, HNRNPA1 / Fold change vs veh, HNRNPA1 / RFU, RNF170 / Fold change vs veh, RNF170 / RFU, ZNF28 / Fold change vs veh, ZNF28 / RFU, RNGTT / Fold change vs veh, RNGTT / RFU, OGT / Fold change vs veh, OGT / RFU, BRD1 / Fold change vs veh, BRD1 / RFU, MARS / Fold change vs veh, MARS / RFU, ZNF655 / Fold change vs veh, ZNF655 / RFU, FAHD1 / Fold change vs veh, FAHD1 / RFU, BDP1 / Fold change vs veh, BDP1 / RFU, LRRCC1 / Fold change vs veh, LRRCC1 / RFU, ARID1A / Fold change vs veh, ARID1A / RFU, ZNF146 / Fold change vs veh, ZNF146 / RFU, ZNF330 / Fold change vs veh, ZNF330 / RFU, GPN3 / Fold change vs veh, GPN3 / RFU, C9orf123 / Fold change vs veh, C9orf123 / RFU, N4BP2L2 / Fold change vs veh, N4BP2L2 / RFU, ARFIP1 / Fold change vs veh, ARFIP1 / RFU, FAM179B / Fold change vs veh, FAM179B / RFU, BCL10 / Fold change vs veh, BCL10 / RFU, UHRF1BP1L / Fold change vs veh, UHRF1BP1L / RFU, BET1 / Fold change vs veh, BET1 / RFU, CNOT2 / Fold change vs veh, CNOT2 / RFU, ZNF268 / Fold change vs veh, ZNF268 / Fold change vs veh, ZNF507 / RFU, DGCR2 / Fold change vs veh, DGCR2 / RFU, WDSUB1 / Fold change vs veh, WDSUB1 / Fold change vs veh, HSP90B1 /// MIR3652 / RFU, ADSS / Fold change vs veh, ADSS / RFU, GK / Fold change vs veh, GK / RFU, ZNF148 / Fold change vs veh, ZNF148 / RFU, TAF9 / Fold change vs veh, TAF9 / RFU, SLC1A5 / Fold change vs veh, SLC1A5 / RFU, SLMO2 / Fold change vs veh, SLMO2 / RFU, ABCC4 / Fold change vs veh, ABCC4 / RFU, LOC101060439 /// RAP1B / Fold change vs veh, LOC101060439 /// RAP1B / RFU, RFX7 / Fold change vs veh, RFX7 / RFU, GTPBP10 / Fold change vs veh, GTPBP10 / RFU, CNEP1R1 / Fold change vs veh, CNEP1R1 / RFU, BIVM-ERCC5 /// ERCC5 / Fold change vs veh, BIVM-ERCC5 /// ERCC5 / RFU, ILF3 / Fold change vs veh, ILF3 / RFU 11762660_at / Fold change /veh 11762660_at / RFU VCAN (11757783_s_at) / Fold change /veh VCAN (11757783_s_at) / RFU DDX43 (11728927_at) / Fold change /veh DDX43 (11728927_at) / RFU KRT8 (11758188_x_at) / Fold change /veh KRT8 (11758188_x_at) / RFU NKD1 (11759106_at) / Fold change /veh NKD1 (11759106_at) / RFU SRD5A1 (11742802_a_at) / Fold change /veh SRD5A1 (11742802_a_at) / RFU TPSAB1 /// TPSB2 (11721975_s_at) / Fold change /veh TPSAB1 /// TPSB2 (11721975_s_at) / RFU GSTM3 (11746129_a_at) / Fold change /veh GSTM3 (11746129_a_at) / RFU IL23R (11737362_x_at) / Fold change /veh IL23R (11737362_x_at) / RFU TMEM51 (11727254_a_at) / Fold change /veh TMEM51 (11727254_a_at) / RFU PIWIL2 (11732686_x_at) / Fold change /veh PIWIL2 (11732686_x_at) / RFU ORM1 (11744905_x_at) / Fold change /veh ORM1 (11744905_x_at) / RFU CCDC152 (11743942_at) / Fold change /veh CCDC152 (11743942_at) / RFU ECM1 (11717891_a_at) / Fold change /veh ECM1 (11717891_a_at) / RFU IL23R (11748794_a_at) / Fold change /veh IL23R (11748794_a_at) / RFU TNFAIP8L3 (11732012_x_at) / Fold change /veh TNFAIP8L3 (11732012_x_at) / RFU MBOAT4 (11741988_at) / Fold change /veh MBOAT4 (11741988_at) / RFU 11764193_at / Fold change /veh 11764193_at / RFU TMEM53 (11763286_at) / Fold change /veh TMEM53 (11763286_at) / RFU MAGEB2 (11727129_at) / Fold change /veh MAGEB2 (11727129_at) / RFU TMEM200A (11744735_a_at) / Fold change /veh TMEM200A (11744735_a_at) / RFU CCDC152 (11751479_a_at) / Fold change /veh CCDC152 (11751479_a_at) / RFU FAM211A (11726209_a_at) / Fold change /veh FAM211A (11726209_a_at) / RFU RGS16 (11746705_a_at) / Fold change /veh RGS16 (11746705_a_at) / RFU VCAN (11755009_s_at) / Fold change /veh VCAN (11755009_s_at) / RFU RHOB (11743442_s_at) / Fold change /veh RHOB (11743442_s_at) / RFU RGS16 (11720943_a_at) / Fold change /veh RGS16 (11720943_a_at) / RFU RGS16 (11720944_at) / Fold change /veh RGS16 (11720944_at) / RFU, VPS4B / Fold change vs veh, VPS4B / RFU, CREB1 / Fold change vs veh, CREB1 / RFU, DNAJC13 / Fold change vs veh, DNAJC13 / RFU, GNAQ / Fold change vs veh, GNAQ / RFU, CDK5R1 / Fold change vs veh, CDK5R1 / RFU, ZRANB3 / Fold change vs veh, ZRANB3 / RFU, CUL4A / Fold change vs veh, CUL4A / RFU, CCNY / Fold change vs veh, CCNY / RFU, UFL1 / Fold change vs veh, UFL1 / RFU, COG3 / Fold change vs veh, COG3 / RFU, DIAPH2 / Fold change vs veh, DIAPH2 / RFU, SKA2 / Fold change vs veh, SKA2 / RFU, AFF3 / Fold change vs veh, AFF3 / RFU, LMF1 / Fold change vs veh, LMF1 / RFU, IPO11 / Fold change vs veh, IPO11 / RFU, DFFB / Fold change vs veh, DFFB / RFU, FOXP1 / Fold change vs veh, FOXP1 / RFU, CARD8 / Fold change vs veh, CARD8 / RFU, STRN3 / Fold change vs veh, STRN3 / RFU, ADK / Fold change vs veh, ADK / RFU, RASSF2 / Fold change vs veh, RASSF2 / RFU, WIPF1 / Fold change vs veh, WIPF1 / RFU, LARP1B / Fold change vs veh, LARP1B / RFU, RASA1 / Fold change vs veh, RASA1 / RFU, RB1 / Fold change vs veh, RB1 / RFU, PPFIA1 / Fold change vs veh, PPFIA1 / RFU, MAT2A / Fold change vs veh, MAT2A / RFU, CCT5 / Fold change vs veh, CCT5 / RFU, WDR92 / Fold change vs veh, WDR92 / RFU, CUX1 / Fold change vs veh, CUX1 / RFU, TTC7A / Fold change vs veh, TTC7A / RFU, TMEM135 / Fold change vs veh, TMEM135 / RFU, DEPTOR / Fold change vs veh, DEPTOR / RFU, CPM / Fold change vs veh, CPM / RFU, DNAJB6 / Fold change vs veh, DNAJB6 / RFU, CACNA2D3 / Fold change vs veh, CACNA2D3 / RFU, DTX4 / Fold change vs veh, DTX4 / RFU, TFCP2 / Fold change vs veh, TFCP2 / RFU, GMCL1 /// GMCL1P1 / Fold change vs veh, GMCL1 /// GMCL1P1 / RFU, AEBP2 / Fold change vs veh, AEBP2 / RFU, SNHG1 /// SNORD22 /// SNORD25 /// SNORD26 /// SNORD27 /// SNORD28 /// SNORD29 /// SNORD31 / Fold change vs veh, SNHG1 /// SNORD22 /// SNORD25 /// SNORD26 /// SNORD27 /// SNORD28 /// SNORD29 /// SNORD31 / Fold change (Aza/veh), C12orf56 (ProbeSet 11735607_a_at) / Fold change (ACY-1035/veh), C12orf56 (ProbeSet 11735607_a_at) / Fold change (Aza/veh), FGFR1OP (ProbeSet 11751329_s_at) / Fold change (ACY-1035/veh), FGFR1OP (ProbeSet 11751329_s_at) / Fold change (Aza/veh), VPS36 (ProbeSet 11739960_a_at) / Fold change (ACY-1035/veh), VPS36 (ProbeSet 11739960_a_at) / RFU SYPL1 (11715823_x_at) / Fold change /veh SYPL1 (11715823_x_at) / RFU IGFBP7 (11715501_s_at) / Fold change /veh IGFBP7 (11715501_s_at) / RFU REEP3 (11722064_at) / Fold change /veh REEP3 (11722064_at) / RFU IGLL1 (11728026_x_at) / Fold change /veh IGLL1 (11728026_x_at): dose or concentration left out as unconfirmed
# Details: MV-4-11 cells, 48 hours
compound,measurement,value
Nc1ncn([C@@H]2O[C@H](CO)[C@@H](O)[C@H]2O)c(=O)n1 [azacitidine],RFU PRF1 (11729649_at),19.15 RFU
